Species on record: Rattus norvegicus
Test: DrugMatrix - Regimen: Daily Repeat
Assay type: toxicity, organism-based, Sprague-Dawley
Set-up: regimen Daily Repeat, gender Male, age 6-8 weeks
Conditions: in vivo, po, route oral GAVAGE, […]; for ABSOLUTE BASOPHIL / ABSOLUTE EOSINOPHIL / ABSOLUTE LYMPHOCYTE / ABSOLUTE MONOCYTE / ABSOLUTE SEGMENTED NEUTROPHIL / BASOPHIL / EOSINOPHIL / ERYTHROCYTE COUNT / HEMATOCRIT / HEMOGLOBIN / LEUKOCYTE COUNT / LYMPHOCYTE / MEAN CORPUSCULAR HEMOGLOBIN / MEAN CORPUSCULAR HEMOGLOBIN CONCENTRATION / MEAN CORPUSCULAR VOLUME / MONOCYTE / NEUTROPHIL / NUCLEATED RED BLOOD CELLS / PLATELET COUNT: tissue Blood; for ALANINE AMINOTRANSFERASE / ALBUMIN / ALKALINE PHOSPHATASE / ASPARTATE AMINOTRANSFERASE / BLOOD UREA NITROGEN / CARBON DIOXIDE / CHLORIDE / CHOLESTEROL / CREATINE PHOSPHOKINASE / CREATININE / GLUCOSE / LACTATE DEHYDROGENASE / LIPASE / PHOSPHORUS / POTASSIUM / SODIUM / TOTAL BILIRUBIN / TOTAL PROTEIN: tissue Plasma
[1] = 0 mg/kg, 72 h, dose level Control, time 3 day
[2] = 0 mg/kg, 120 h, dose level Control, time 5 day
[3] = 40 mg/kg, 72 h, dose level Low, time 3 day

For CN(C)CCCC1(c2ccc(F)cc2)OCc2cc(C#N)ccc21 (stereo not given) [CITALOPRAM], the “ABSOLUTE BASOPHIL” value [1] was 0 CELLS/uL, the “ABSOLUTE EOSINOPHIL” value [1] was 41.83 CELLS/uL and the “ABSOLUTE LYMPHOCYTE” value [1] was 8545.5 CELLS/uL. For the same molecule, the “ABSOLUTE MONOCYTE” value [1] was 240 CELLS/uL, the “ABSOLUTE SEGMENTED NEUTROPHIL” value [1] was 906 CELLS/uL and the BASOPHIL [1] was 0%. For the same molecule, the EOSINOPHIL [1] was 0.33%, the “ERYTHROCYTE COUNT” value [1] was 5.6 x10E6/uL and the HEMATOCRIT [1] was 35.4%. For the same molecule, the HEMOGLOBIN [1] was 13.42 G/DL, the “LEUKOCYTE COUNT” value [1] was 9.73 x10E3/uL and the LYMPHOCYTE [1] was 87.83%. The “MEAN CORPUSCULAR HEMOGLOBIN” value [1] was 23.98 pg, the “MEAN CORPUSCULAR HEMOGLOBIN CONCENTRATION” value [1] was 37.92 G/DL and the “MEAN CORPUSCULAR VOLUME” value [1] was 63.3 fL. For the same molecule, the MONOCYTE [1] was 2.5%, the NEUTROPHIL [1] was 9.33% and the “NUCLEATED RED BLOOD CELLS” value [1] was 0 /100WBC. For the same molecule, the “PLATELET COUNT” value [1] was 1032 x10E3/uL, the “ALANINE AMINOTRANSFERASE” value [1] was 72.83 u/L and the ALBUMIN [1] was 4 G/DL. The “ALKALINE PHOSPHATASE” value [1] was 322.83 u/L, the “ASPARTATE AMINOTRANSFERASE” value [1] was 102.67 u/L and the “BLOOD UREA NITROGEN” value [1] was 12 mg/dL. The “CARBON DIOXIDE” value [1] was 34.33 mmol/L, the CHLORIDE [1] was 97.67 MEQ/L and the CHOLESTEROL [1] was 82.5 mg/dL. For the same molecule, the “CREATINE PHOSPHOKINASE” value [1] was 410.33 u/L, the CREATININE [1] was 0.18 mg/dL and the GLUCOSE [1] was 164.5 mg/dL. For the same molecule, the “LACTATE DEHYDROGENASE” value [1] was 119.5 u/L, the LIPASE [1] was 11.83 u/L and the PHOSPHORUS [1] was 9.52 mg/dL. For the same molecule, the POTASSIUM [1] was 5.56 MEQ/L, the SODIUM [1] was 142.48 MEQ/L and the “TOTAL BILIRUBIN” value [1] was 0.18 mg/dL. The “TOTAL PROTEIN” value [1] was 5.77 G/DL, the “ABSOLUTE BASOPHIL” value [2] was 0 CELLS/uL and the “ABSOLUTE EOSINOPHIL” value [2] was 0 CELLS/uL. The “ABSOLUTE LYMPHOCYTE” value [2] was 9065 CELLS/uL, the “ABSOLUTE MONOCYTE” value [2] was 341.33 CELLS/uL and the “ABSOLUTE SEGMENTED NEUTROPHIL” value [2] was 527 CELLS/uL. For the same molecule, the BASOPHIL [2] was 0%, the EOSINOPHIL [2] was 0% and the “ERYTHROCYTE COUNT” value [2] was 5.25 x10E6/uL. For the same molecule, the HEMATOCRIT [2] was 34.08%, the HEMOGLOBIN [2] was 13.5 G/DL and the “LEUKOCYTE COUNT” value [2] was 9.93 x10E3/uL. The LYMPHOCYTE [2] was 91.17%, the “MEAN CORPUSCULAR HEMOGLOBIN” value [2] was 25.7 pg and the “MEAN CORPUSCULAR HEMOGLOBIN CONCENTRATION” value [2] was 39.62 G/DL. The “MEAN CORPUSCULAR VOLUME” value [2] was 64.93 fL, the MONOCYTE [2] was 3.33% and the NEUTROPHIL [2] was 5.5%. For the same molecule, the “NUCLEATED RED BLOOD CELLS” value [2] was 0 /100WBC, the “PLATELET COUNT” value [2] was 1077.5 x10E3/uL and the “ALANINE AMINOTRANSFERASE” value [2] was 57.83 u/L. For the same molecule, the ALBUMIN [2] was 4.07 G/DL, the “ALKALINE PHOSPHATASE” value [2] was 319.17 u/L and the “ASPARTATE AMINOTRANSFERASE” value [2] was 83.33 u/L. The “BLOOD UREA NITROGEN” value [2] was 13.67 mg/dL, the “CARBON DIOXIDE” value [2] was 30.83 mmol/L and the CHLORIDE [2] was 98.33 MEQ/L. For the same molecule, the CHOLESTEROL [2] was 64.83 mg/dL, the “CREATINE PHOSPHOKINASE” value [2] was 263.67 u/L and the CREATININE [2] was 0.2 mg/dL. The GLUCOSE [2] was 182.83 mg/dL, the “LACTATE DEHYDROGENASE” value [2] was 124 u/L and the LIPASE [2] was 10.5 u/L. It also gave a PHOSPHORUS [2] of 10 mg/dL, a POTASSIUM [2] of 5.78 MEQ/L and an SODIUM [2] of 142.48 MEQ/L. For the same molecule, the “TOTAL BILIRUBIN” value [2] was 0.2 mg/dL, the “TOTAL PROTEIN” value [2] was 6 G/DL and the “ABSOLUTE BASOPHIL” value [3] was 0 CELLS/uL. For the same molecule, the “ABSOLUTE EOSINOPHIL” value [3] was 46.33 CELLS/uL, the “ABSOLUTE LYMPHOCYTE” value [3] was 12847 CELLS/uL and the “ABSOLUTE MONOCYTE” value [3] was 96.67 CELLS/uL. The “ABSOLUTE SEGMENTED NEUTROPHIL” value [3] was 810 CELLS/uL, the BASOPHIL [3] was 0% and the EOSINOPHIL [3] was 0.33%. The “ERYTHROCYTE COUNT” value [3] was 5.4 x10E6/uL, the HEMATOCRIT [3] was 34.8% and the HEMOGLOBIN [3] was 13.67 G/DL. For the same molecule, the “LEUKOCYTE COUNT” value [3] was 13.8 x10E3/uL, the LYMPHOCYTE [3] was 93% and the “MEAN CORPUSCULAR HEMOGLOBIN” value [3] was 25.3 pg. The “MEAN CORPUSCULAR HEMOGLOBIN CONCENTRATION” value [3] was 39.27 G/DL, the “MEAN CORPUSCULAR VOLUME” value [3] was 64.37 fL and the MONOCYTE [3] was 0.67%. For the same molecule, the NEUTROPHIL [3] was 6%, the “NUCLEATED RED BLOOD CELLS” value [3] was 0 /100WBC and the “PLATELET COUNT” value [3] was 979.33 x10E3/uL. The “ALANINE AMINOTRANSFERASE” value [3] was 61.33 u/L, the ALBUMIN [3] was 3.93 G/DL and the “ALKALINE PHOSPHATASE” value [3] was 390.33 u/L. The “ASPARTATE AMINOTRANSFERASE” value [3] was 85.33 u/L, the “BLOOD UREA NITROGEN” value [3] was 9.33 mg/dL and the “CARBON DIOXIDE” value [3] was 28 mmol/L. The CHLORIDE [3] was 101 MEQ/L, the CHOLESTEROL [3] was 69.67 mg/dL and the “CREATINE PHOSPHOKINASE” value [3] was 135.67 u/L. For the same molecule, the CREATININE [3] was 0.31 mg/dL, the GLUCOSE [3] was 158.67 mg/dL and the “LACTATE DEHYDROGENASE” value [3] was 101.67 u/L. It also gave an LIPASE [3] of 14.33 u/L, a PHOSPHORUS [3] of 10.5 mg/dL and a POTASSIUM [3] of 6.13 MEQ/L. For the same molecule, the SODIUM [3] was 144.7 MEQ/L and the “TOTAL BILIRUBIN” value [3] was 0.17 mg/dL.
